Results from patent US9161944B2, “Method for preventing cancer metastasis” (INSERM (INSTITUT NATIONAL DE LA SANTE ET DE LA SANTE ET DE …, priority 2010, dated 2015).
pIC50: −log10 of the molar value.

Columns and labels:
MDA-MB-435s shSK3 = assay: Transwell motility of cells not expressing SK3; format: cell-based, human; details: 10 nM to 300 nM; non-specific effect at 1 μM, FIG. 6F
Description: FIG. 6: JPH1701 (or Ohmline) activity on cell motility on cancerous MDA-MB-435s cells and on non cancerous MCF-10A cells. The motility was tested by transwell assay. Additionally, viability tests were performed using MTT assays. FIG. 6A-B) JPH1701 (the concentrations of JPH1701, for the FIG. 6A, are 0 (control condition), 10 nM, 100 nM, 300 nM and 1 μM) reduces motility (FIG. 6A) of MDA-MB-435s wild type (WT) cells from 10 nM without affecting viability (FIG. 6B) except at 10 μM. FIG. 6C-D) MCF-10A motility (FIG. 6C) and viability (FIG. 6D) are not affected by JPH1701 (the concentrations of JPH1701, for the FIG. 6C, are 0 (control condition), 10 nM, 100 nM, 300 nM and 1 μM). FIG. 6E-F) Effect on SK3 dependent motility.
MDA-MB-435s and HEK293 cells were transduced with lentiviral vector at multiplicities of infection (MOI) of 1 to 3 in the presence of polybrene (4 μg/ml, Sigma). The transduction rate for MDA-MB-435s determined by counting GFP cells was close to 90%. In order to selection one clone of HEK293-SK3/KCa2.3 limit dilution were realized and each clone was tested in patch clamp with apamin and edelfosine and by western blotting in order to control expression of SK3/KCa2.3 channel.
At least three independent experiments were each performed in triplicate.

[1] = test system: endogenously HEK potassium current; assay: Endogenous HEK potassium current (patch clamp); format: cell-based; details: applied concentration range; data not shown
Description: Whatever the concentration tested approximately 40 sec was needed to reduce 50% of the amplitude of the current. […] Increasing intracellular calcium concentration by the addition of 5 μM A23187 totally reversed the effect of JPH1701 (data not shown).

SKCa channel = assay: 125I-apamin binding, membrane homogenates of cerebral cortex; details: 0.3 and 2 μM, FIG. 8E
Description: FIG. 8: Effect of JPH1701 on SK3 channel activity. […] Results are expressed as the mean±S.E.M. FIG. 8C) Histograms showing the effect of racemic hexadecyloxy-2-O-methyl-sn-glycerol-lactose (JPH 1701 or Ohmline, i.e: JPH1701 in the example) mixture and of both enantiomers (R-JPH1701 and S-JPH1701) on SK3 activity. The percentages of inhibition represent the ratio (SK3 current amplitude and chord conductance (in the presence of 10 μM JPH1701)/SK3 current amplitude in control experiments). Black bars show current at 0 mV and grey bars indicate the chord conductance. FIG. 8D) Dose-response effect of the form + of JPH1701 (concentrations: 0 (control), 0.3, 1 and 10 μM). Columns, mean, bars, SEM, (5 cells for racemic mix and 4 cells for + and − forms). FIG. 8E) Histogram showing the % of control specific binding of ^125I-Apamin ([…]) to SKCa channel obtained from membrane homogenates of cerebral cortex by 0.3 and 2 μM JPH1701.
To investigate whether JPH1701 interacts with the apamin binding site, 125I-apamin binding studies were performed.

[2] = test system: LPA (lysophosphatidic acid) receptor; assay: LPA receptor binding
Description: Indeed, the molecular structure of JPH1701 resembles to LPA and PAF. This similarity between the molecular structures prompted us to analyse whether some of the JPH1701's effects were mediated through its binding to the PAF receptor or to the LPA (lysophosphatidic acid) receptor. […] The same results were obtained with LPA receptor (105.3±8.0% and 87.2±4.7% of LPA binding respectively at 0.3 and 2 μM JPH1701). It has been also reported that edelfosine inhibits enzyme activity like protein kinase C or phospholipase C that may explain some of its cytostatic and cytotoxic effects.

PhosphoLipase C (PLC) = assay: PhosphoLipase C activity; format: biochemical; details: FIG. 11D
Description: FIG. 11: Effects of JPH1701 on PAF receptor, PLC and PKCs activities. FIG. 11A) Histogram showing the percentage of control specific binding of 3H-C16-PAF to recombinant PAF receptor obtained from membrane homogenates of CHO cells by 0.3 and 2 μM edelfosine and by 0.3 and 2 μM JPH1701. FIG. 11B) Histogram showing the percentage of control agonist response (% effect i.e: increase of intracellular calcium concentration) of 0.3 and 2 μM edelfosine and JPH1701 on PAF receptor normalized to the response induced by 100 nM C16-PAF. […] FIG. 11C-D) Dose responses curves showing the effect of JPH1701 on PKCs (FIG. 11C, PKCs are: alpha, Beta 1, Beta 2, Gamma, Delta, Epsilon, Zeta, Eta, Theta, Iota) and PhosphoLipase C (PLC) activities (FIG. 11D).

hexadecyloxy-2-O-methyl-sn-glycerol-lactose [JPH1701]
Effect on migration ability of cells not expressing SK3 (MDA-MB-435s shSK3): does not affect
Effect on endogenous HEK potassium current [1]: not significantly affected
Inhibition of 125I-apamin binding (SKCa channel): does not inhibit
% of LPA binding ([2]; 0.3 μM): 105.3±8.0%
% of LPA binding ([2]; 2 μM): 87.2±4.7%
pIC50 (PhosphoLipase C (PLC)): 5.15
